Source: US20110111016A1, “NON-DNA BASE-CONTAINING POLYNUCLEOTIDE COMPOSITIONS AND THEIR USE FOR THE MODULATION OF IMMUNE RESPONSES” (priority 2009, published 2011)

How the values were obtained:
Type in all cases: cell-based
human TLR8 = target: T1, human TLR8 (Homo sapiens, UniProt Q9NR97); assay: NF-κB activation (secreted alkaline phosphatase reporter) in HEK293 cells expressing human TLR8; details: HEK293/hTLR8 cell line; polynucleotide final concentration 10 μg/mL; 16-20 hours
T1 construct: host or cells: HEK293
T1 sequence (Q9NR97 27-1041): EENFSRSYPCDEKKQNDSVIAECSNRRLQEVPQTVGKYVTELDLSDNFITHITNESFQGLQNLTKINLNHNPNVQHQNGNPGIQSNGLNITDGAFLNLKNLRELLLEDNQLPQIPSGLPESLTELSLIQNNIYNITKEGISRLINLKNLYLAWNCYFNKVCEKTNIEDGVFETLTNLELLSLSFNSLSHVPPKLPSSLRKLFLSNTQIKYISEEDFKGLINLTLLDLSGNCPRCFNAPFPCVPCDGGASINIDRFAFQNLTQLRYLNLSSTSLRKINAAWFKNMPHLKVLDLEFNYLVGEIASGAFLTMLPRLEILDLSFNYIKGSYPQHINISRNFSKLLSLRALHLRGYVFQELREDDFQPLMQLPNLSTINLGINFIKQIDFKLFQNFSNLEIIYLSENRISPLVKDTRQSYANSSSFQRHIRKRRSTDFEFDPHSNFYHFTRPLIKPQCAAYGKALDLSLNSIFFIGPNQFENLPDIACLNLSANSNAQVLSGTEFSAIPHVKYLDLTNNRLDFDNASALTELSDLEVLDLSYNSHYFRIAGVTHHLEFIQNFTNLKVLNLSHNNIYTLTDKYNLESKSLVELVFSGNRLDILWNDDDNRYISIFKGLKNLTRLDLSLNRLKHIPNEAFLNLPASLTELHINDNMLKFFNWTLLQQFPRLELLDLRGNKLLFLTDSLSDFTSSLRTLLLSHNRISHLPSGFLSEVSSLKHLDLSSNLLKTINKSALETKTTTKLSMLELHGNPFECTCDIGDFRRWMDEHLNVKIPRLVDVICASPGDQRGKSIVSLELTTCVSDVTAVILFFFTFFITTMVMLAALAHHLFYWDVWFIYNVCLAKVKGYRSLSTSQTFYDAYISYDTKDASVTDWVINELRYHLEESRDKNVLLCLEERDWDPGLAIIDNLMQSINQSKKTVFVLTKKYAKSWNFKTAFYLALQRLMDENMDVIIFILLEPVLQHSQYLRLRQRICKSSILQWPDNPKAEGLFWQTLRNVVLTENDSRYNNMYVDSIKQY
Procedure: Toll-like receptors (TLR) are known to interact with a number of natural and synthetic molecules that can function as immune adjuvants. Examples of these molecules are Poly (I:C) polynucleotides, lipopolysaccharide and CpG-containing polynucleotides. […] TLR engagement was determined by measurement of secreted alkaline phosphatase, under the control of a reporter inducible by NF-κB. Appropriate positive controls were used for each TLR. The non-DNA base-containing polynucleotides were dissolved in sterile water at a concentration of 100 μg/mL, and used at a final concentration of 10 μg/mL. HEK293 cells containing the appropriate TLR and NF-κB reporting system (InvivoGen, San Diego, Calif., USA) were placed in wells of 96 well plates (25,000-50,000 cells, in a final volume of 200 μL medium designed for the detection of NF-κB induced secreted alkaline phosphatase expression), and incubated with non-DNA base-containing polynucleotides or positive controls for 16-20 hours. TLR activating activity was determined by measurement of absorbance at 650 nm wavelength using a Coulter AD340C absorbance detector. The results shown are expressed as Optical Density (OD).

NF-κB control cells = assay: NF-κB reporter control cells (secreted alkaline phosphatase); details: polynucleotide final concentration 10 μg/mL, 16-20 hours
Procedure: (§1) Toll-like receptors (TLR) are known to interact with a number of natural and synthetic molecules that can function as immune adjuvants. Examples of these molecules are Poly (I:C) polynucleotides, lipopolysaccharide and CpG-containing polynucleotides. The interaction of non-DNA base-containing polynucleotides (SEQ ID NOs: 1-3) to interact with TLR and induce down-stream signaling was tested by assessing NF-κB activation in HEK293 cells expressing human TLR2, 3, 4, 5, 7, 8 and 9. TLR engagement was determined by measurement of secreted alkaline phosphatase, under the control of a reporter inducible by NF-κB. Appropriate positive controls were used for each TLR. The non-DNA base-containing polynucleotides were dissolved in sterile water at a concentration of 100 μg/mL, and used at a final concentration of 10 μg/mL. HEK293 cells containing the appropriate TLR and NF-κB reporting system (InvivoGen, San Diego, Calif., USA) were placed in wells of 96 well plates (25,000-50,000 cells, in a final volume of 200 μL medium designed for the detection of NF-κB induced secreted alkaline phosphatase expression), and incubated with non-DNA base-containing polynucleotides or positive controls for 16-20 hours. TLR activating activity was determined by measurement of absorbance at 650 nm wavelength using a Coulter AD340C absorbance detector. The results shown are expressed as Optical Density (OD).

human TLR3 = target: T2, human TLR3 (Homo sapiens, UniProt O15455); assay: NF-κB activation (secreted alkaline phosphatase reporter) in HEK293 cells expressing human TLR3; details: HEK293/hTLR3 cell line; polynucleotide final concentration 10 μg/mL; 16-20 hours
T2 construct: host or cells: HEK293
T2 sequence (O15455 24-904): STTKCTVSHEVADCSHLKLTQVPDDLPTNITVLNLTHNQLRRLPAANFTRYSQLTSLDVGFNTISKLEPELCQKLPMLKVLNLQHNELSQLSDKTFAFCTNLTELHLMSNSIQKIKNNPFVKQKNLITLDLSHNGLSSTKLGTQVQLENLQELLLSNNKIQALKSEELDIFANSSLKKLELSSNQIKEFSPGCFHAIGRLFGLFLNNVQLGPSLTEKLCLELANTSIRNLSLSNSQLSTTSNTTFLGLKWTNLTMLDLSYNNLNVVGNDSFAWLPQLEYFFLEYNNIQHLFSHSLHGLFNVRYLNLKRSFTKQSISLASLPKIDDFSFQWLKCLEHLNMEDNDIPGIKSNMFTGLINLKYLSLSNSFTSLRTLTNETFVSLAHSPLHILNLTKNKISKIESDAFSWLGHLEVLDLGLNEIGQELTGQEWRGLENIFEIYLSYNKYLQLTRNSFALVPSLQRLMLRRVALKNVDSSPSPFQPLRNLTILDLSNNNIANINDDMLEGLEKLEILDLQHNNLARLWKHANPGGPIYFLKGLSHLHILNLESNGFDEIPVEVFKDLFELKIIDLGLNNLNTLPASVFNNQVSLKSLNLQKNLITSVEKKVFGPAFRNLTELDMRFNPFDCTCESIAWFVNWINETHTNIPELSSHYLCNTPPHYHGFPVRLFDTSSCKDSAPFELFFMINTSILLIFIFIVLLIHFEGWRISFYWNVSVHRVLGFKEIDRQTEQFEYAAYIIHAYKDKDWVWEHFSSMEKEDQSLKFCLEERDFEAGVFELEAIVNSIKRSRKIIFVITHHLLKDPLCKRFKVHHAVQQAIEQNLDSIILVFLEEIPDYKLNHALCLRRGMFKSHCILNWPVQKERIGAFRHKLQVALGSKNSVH
Procedure: as §1

Row | Substance | TLR activation, Optical Density at 650 nm, hTLR8 (human TLR8) | Optical Density at 650 nm, NF-κB control cells (NF-κB control cells) | TLR activation, Optical Density at 650 nm, hTLR3 (human TLR3)
1 | NebGGTGNeb (DNA NGGTGN; Nebularine at both ends, sugar and linkages not given here, further chemistry not given here) [SEQ ID NO: 1, 5′-OH, 3′-OH non-DNA base-containing polynucleotide] | 0.118 | 0.078 | 0.055
2 | IIGTII [SEQ ID NO: 3] | 0.128 | 0.074 | 0.057
3 | UUGTUU [SEQ ID NO: 2] | 0.120 | 0.076 | 0.056
